According to patent publication US9668480B2, “Method for treating plants against fungi resistant to fungicides using carboxamide or thiocarboxamide derivatives” (priority 2012, dated 2017):
Several values for one entry are separate records, joined by “and”; a condition that tells them apart may be missing. Identical values can stand only once.

Assays:
[1] = molecular target: succinate-ubiquinone redutase (SDH) of mitochondria from the 3884 strain (SDHB P225H substitution) (Botrytis cinerea, UniProt A0A384J5E4+D2IH01+D2IH03, P225H); experiment: SDH activity of extracted mitochondria by DCPIP reduction at 595 nm, P225H mutant; format: biochemical; design: key to Classification: Classification A pI50 increase or stable compared to WT; Classification B pI50 decrease inferior or equal to 0.6 compared to WT; Classification C pI50 decrease superior to 0.6 compared to WT; details: for IC50 / PI50 P225H3884: mitochondria of 3884 strain, 20 min preincubation, -log 10 of concentration inhibiting DCPIP reduction by 50%; for IC50: read-out: PI50 P225H3884 (converted); for Classification: pI50 on P225H 3884 mitochondria compared to WT
Experimental: (§1) Compounds activity was investigated at the level of the mitochondrial target and compared to other SDH inhibitors.
(§2) Mitochondria were extracted according to Cramer et al. (1983) Analytical biochemistry, 128, 384-392 and the mycelium prepared according to Fritz et al., (1993). Agronomie 13, 225-230 except that spore's incubation was pursued for 48 hours. SDH activity was measured by following DCPIP (2,6-dichlorphenol-indophenol) reduction at 595 nm overtime. To test SDH inhibitors, mitochondria were incubated with test compounds for 20 min prior the initiation of the reaction.

[2] = molecular target: succinate-ubiquinone redutase (SDH) of mitochondria from Bo47 WT strain (Botrytis cinerea, UniProt A0A384J5E4+D2IH01+D2IH03); experiment: SDH activity of extracted mitochondria by DCPIP reduction at 595 nm, wild type; format: biochemical; details: 20 min preincubation, -log 10 of concentration inhibiting DCPIP reduction by 50%; for IC50: PI50 Bo47 (Wild type)
Experimental: as §1, §2

[3] = test system: Botrytis cinerea boscalid-resistant strains with SDHB_P225H, F substitutions; experiment: Sensitivity assay in microtiter plate, resistance factor of boscalid-resistant field strains versus Bo47 WT; format: cell-based
Experimental: Four to five strains with SDHB_P225H, F substitutions were retained for subsequent sensitivity assays in microtiter plate. IC50 of test compounds were determined and resistance factors (RF) calculated as the ratio of IC50 mutant/IC50 WT (Bo47). […] Strains giving a RF below 10 were considered sensitive, moderately resistant when RF was comprised between 10 and 50, resistant above 50.

[4] = mutation P225F, BOTRCI strain 08BC1554
[5] = mutation P225F, BOTRCI strain 08BC1557
[6] = mutation P225F, BOTRCI strain 08BC1558
[7] = mutation P225F, BOTRCI strain 09BC2615
[8] = mutation P225H, BOTRCI strain 09BC2640
[9] = mutation P225H, BOTRCI strain 09BC2648
[10] = mutation P225H, BOTRCI strain 09BC2649
[11] = mutation P225H, BOTRCI strain 09BC2652

Chain of succinate-ubiquinone redutase (SDH) of mitochondria from the 3884 strain (SDHB P225H substitution) (A0A384J5E4 30-300, stated change not applied): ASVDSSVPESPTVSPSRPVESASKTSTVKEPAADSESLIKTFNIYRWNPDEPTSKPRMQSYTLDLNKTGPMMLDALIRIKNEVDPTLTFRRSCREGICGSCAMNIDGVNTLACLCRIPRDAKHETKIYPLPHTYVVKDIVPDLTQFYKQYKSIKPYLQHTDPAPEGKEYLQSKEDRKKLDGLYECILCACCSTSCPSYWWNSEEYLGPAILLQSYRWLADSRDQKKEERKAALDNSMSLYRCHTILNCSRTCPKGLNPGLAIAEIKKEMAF
Chain of succinate-ubiquinone redutase (SDH) of mitochondria from the 3884 strain (SDHB P225H substitution) (D2IH03 46-189, stated change not applied): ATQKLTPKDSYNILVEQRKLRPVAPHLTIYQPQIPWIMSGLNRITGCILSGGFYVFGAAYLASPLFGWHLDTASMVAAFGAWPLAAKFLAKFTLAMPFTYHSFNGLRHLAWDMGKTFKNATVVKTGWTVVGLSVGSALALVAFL
Chain of succinate-ubiquinone redutase (SDH) of mitochondria from the 3884 strain (SDHB P225H substitution) (D2IH01 64-192, stated change not applied): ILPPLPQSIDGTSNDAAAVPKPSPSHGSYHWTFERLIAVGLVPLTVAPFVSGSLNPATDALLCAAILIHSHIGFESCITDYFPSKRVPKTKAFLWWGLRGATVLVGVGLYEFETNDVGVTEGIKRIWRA
Chain of succinate-ubiquinone redutase (SDH) of mitochondria from the 3884 strain (SDHB P225H substitution) (A0A384K456 34-647 partner): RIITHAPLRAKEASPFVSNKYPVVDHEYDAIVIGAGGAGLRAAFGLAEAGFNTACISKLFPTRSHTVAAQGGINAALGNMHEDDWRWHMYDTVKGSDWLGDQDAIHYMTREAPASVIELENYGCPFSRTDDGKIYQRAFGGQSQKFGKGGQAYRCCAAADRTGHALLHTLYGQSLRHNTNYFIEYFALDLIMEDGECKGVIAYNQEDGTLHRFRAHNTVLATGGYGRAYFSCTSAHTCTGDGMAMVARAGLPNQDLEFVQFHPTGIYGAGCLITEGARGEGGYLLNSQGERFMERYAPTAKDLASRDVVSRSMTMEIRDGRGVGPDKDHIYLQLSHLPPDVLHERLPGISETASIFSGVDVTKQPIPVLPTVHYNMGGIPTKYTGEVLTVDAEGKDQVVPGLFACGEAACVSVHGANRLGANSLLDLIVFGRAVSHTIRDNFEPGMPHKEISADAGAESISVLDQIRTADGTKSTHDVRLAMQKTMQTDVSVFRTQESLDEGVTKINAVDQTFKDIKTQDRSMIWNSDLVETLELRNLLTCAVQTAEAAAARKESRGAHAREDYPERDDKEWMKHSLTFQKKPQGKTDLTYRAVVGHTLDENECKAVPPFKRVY
Chain of succinate-ubiquinone redutase (SDH) of mitochondria from Bo47 WT strain (A0A384K456 entry or part of it): as the sequence (A0A384K456 34-647 partner) above
Chain of succinate-ubiquinone redutase (SDH) of mitochondria from Bo47 WT strain (D2IH03 entry or part of it): as the sequence (D2IH03 46-189, stated change not applied) above
Chain of succinate-ubiquinone redutase (SDH) of mitochondria from Bo47 WT strain (A0A384J5E4 entry or part of it): as the sequence (A0A384J5E4 30-300, stated change not applied) above
Chain of succinate-ubiquinone redutase (SDH) of mitochondria from Bo47 WT strain (D2IH01 entry or part of it): as the sequence (D2IH01 64-192, stated change not applied) above

In the case of `O=C(Nc1ccccc1-c1ccc(Cl)cc1)c1cccnc1Cl` [Boscalid, reference compound], the IC50 [1] is reported as 5010 nM, the Classification [1] is reported as “C (Classification C pI50 decrease superior to 0.6 compared to WT)” and the IC50 [2] is reported as 39.8 nM.

`CC(C)c1ccccc1CN(C(=O)c1c(C(F)F)nn(C)c1F)C1CC1` [Compound A1, N-cyclopropyl-3-(difluoromethyl)-5-fluoro-N-(2-isopropylbenzyl)-1-methyl-1H-pyrazole-4-carboxamide] was tested, and the IC50 [1] was 3.16 nM, the Classification [1] was “A” and the IC50 [2] was 12.6 nM.

`Cn1nc(C(F)F)c(C(=O)N(Cc2ccccc2C2CC2)C2CC2)c1F` [Compound A2, N-cyclopropyl-N-(2-cyclopropylbenzyl)-3-(difluoromethyl)-5-fluoro-1-methyl-1H-pyrazole-4-carboxamide] was tested, and the IC50 [1] was 2.51 nM, the Classification [1] was “A” and the IC50 [2] was 6.31 nM.

`Cn1nc(C(F)F)c(C(=O)N(Cc2ccccc2C(C)(C)C)C2CC2)c1F` [Compound A3, N-(2-tert-butylbenzyl)-N-cyclopropyl-3-(difluoromethyl)-5-fluoro-1-methyl-1H-pyrazole-4-carboxamide] was tested, and the “resistance factor (RF), ratio of IC50 mutant/IC50 WT (Bo47)” value (“resistance factor (RF), ratio” for short) [3, 4] was 1.8, the “resistance factor (RF), ratio” value [3, 5] was 1.2 and the “resistance factor (RF), ratio” value [3, 6] was 2.2. The “resistance factor (RF), ratio” value [3, 7] was 1.0, the “resistance factor (RF), ratio” value [3, 8] was 0.9 and the “resistance factor (RF), ratio” value [3, 9] was 1.0. For the same compound, the “resistance factor (RF), ratio” value [3, 10] was 1.7 and the “resistance factor (RF), ratio” value [3, 11] was 1.1.

With `CC(C)c1ccc(Cl)cc1CN(C(=O)c1c(C(F)F)nn(C)c1F)C1CC1` [Compound A5, N-(5-chloro-2-isopropylbenzyl)-N-cyclopropyl-3-(difluoromethyl)-5-fluoro-1-methyl-1H-pyrazole-4-carboxamide] the IC50 [1] was 1.26 nM, the Classification [1] was “A” and the IC50 [2] was 6.31 nM.

In the case of `CCc1ccc(F)cc1CN(C(=O)c1c(C(F)F)nn(C)c1F)C1CC1` [Compound A6, N-cyclopropyl-3-(difluoromethyl)-N-(2-ethyl-5-fluorobenzyl)-5-fluoro-1-methyl-1H-pyrazole-4-carboxamide], the IC50 [1] is reported as 2.51 nM, the Classification [1] is reported as “A” and the IC50 [2] is reported as 7.94 nM.

With `CC(C)c1ccc(F)cc1CN(C(=O)c1c(C(F)F)nn(C)c1F)C1CC1` [Compound A7, N-cyclopropyl-3-(difluoromethyl)-5-fluoro-N-(5-fluoro-2-isopropylbenzyl)-1-methyl-1H-pyrazole-4-carboxamide] the IC50 [1] was 1.58 nM, the Classification [1] was “A” and the IC50 [2] was 3.98 nM.

For `Cn1nc(C(F)F)c(C(=O)N(Cc2cc(F)ccc2C2CC2)C2CC2)c1F` [Compound A8, N-cyclopropyl-N-(2-cyclopropyl-5-fluorobenzyl)-3-(difluoromethyl)-5-fluoro-1-methyl-1H-pyrazole-4-carboxamide], the IC50 [1] was 3.16 nM, the Classification [1] was “A” and the IC50 [2] was 7.94 nM.

With `Cn1nc(C(F)F)c(C(=O)N(Cc2cc(F)ccc2C2CCCC2)C2CC2)c1F` [Compound A9, N-(2-cyclopentyl-5-fluorobenzyl)-N-cyclopropyl-3-(difluoromethyl)-5-fluoro-1-methyl-1H-pyrazole-4-carboxamide] the IC50 [1] was 3.16 nM, the Classification [1] was “A” and the IC50 [2] was 5.01 nM.

With `CC(C)c1cccc(F)c1CN(C(=O)c1c(C(F)F)nn(C)c1F)C1CC1` [Compound A10, N-cyclopropyl-3-(difluoromethyl)-5-fluoro-N-(2-fluoro-6-isopropylbenzyl)-1-methyl-1H-pyrazole-4-carboxamide] the IC50 [1] was 6.31 nM, the Classification [1] was “B (Classification B pI50 decrease inferior or equal to 0.6 compared to WT)” and the IC50 [2] was 3.98 nM.

`Cc1ccc(C(C)C)c(CN(C(=O)c2c(C(F)F)nn(C)c2F)C2CC2)c1` [Compound A12, N-cyclopropyl-3-(difluoromethyl)-5-fluoro-N-(2-isopropyl-5-methylbenzyl)-1-methyl-1H-pyrazole-4-carboxamide] was tested, and the IC50 [1] was 1 nM, the Classification [1] was “A” and the IC50 [2] was 3.98 nM.

For `Cc1ccc(C(C)(C)C)c(CN(C(=O)c2c(C(F)F)nn(C)c2F)C2CC2)c1` [Compound A14, N-(2-tert-butyl-5-methylbenzyl)-N-cyclopropyl-3-(difluoromethyl)-5-fluoro-1-methyl-1H-pyrazole-4-carboxamide], the IC50 [1] was 3.16 nM, the Classification [1] was “A” and the IC50 [2] was 5.01 nM.

For `Cn1nc(C(F)F)c(C(=O)N(Cc2cc(Cl)ccc2C(F)(F)F)C2CC2)c1F` [Compound A15, N-[5-chloro-2-(trifluoromethyl)benzyl]-N-cyclopropyl-3-(difluoromethyl)-5-fluoro-1-methyl-1H-pyrazole-4-carboxamide], the IC50 [1] was 6.31 nM, the Classification [1] was “A” and the IC50 [2] was 15.8 nM.

`Cc1ccc(C(F)(F)F)c(CN(C(=O)c2c(C(F)F)nn(C)c2F)C2CC2)c1` [Compound A16, N-cyclopropyl-3-(difluoromethyl)-5-fluoro-1-methyl-N-[5-methyl-2-(trifluoromethyl)benzyl]-1H-pyrazole-4-carboxamide] was tested, and the IC50 [1] was 5.01 nM, the Classification [1] was “A” and the IC50 [2] was 20 nM.

With `Cn1nc(C(F)F)c(C(=O)N(Cc2c(Cl)cccc2C(F)(F)F)C2CC2)c1F` [Compound A17, N-[2-chloro-6-(trifluoromethyl)benzyl]-N-cyclopropyl-3-(difluoromethyl)-5-fluoro-1-methyl-1H-pyrazole-4-carboxamide] the IC50 [1] was 3.16 nM, the Classification [1] was “A” and the IC50 [2] was 10 nM.

With `Cn1nc(C(F)F)c(C(=O)N(Cc2c(C(F)(F)F)ccc(Cl)c2F)C2CC2)c1F` [Compound A18, N-[3-chloro-2-fluoro-6-(trifluoromethyl)benzyl]-N-cyclopropyl-3-(difluoromethyl)-5-fluoro-1-methyl-1H-pyrazole-4-carboxamide] the “activity on strains with P225 substitutions compared with wild type strain” value ([3]; strains with P225 substitutions vs wild type) was “always more active on strains with P225 substitutions than on wild type strain”, the IC50 [1] was 6.31 nM and the Classification [1] was “A”. For the same compound, the IC50 [2] was 15.8 nM.

`CC(C)c1ccccc1CN(C(=S)c1c(C(F)F)nn(C)c1F)C1CC1` [Compound A20, N-cyclopropyl-3-(difluoromethyl)-5-fluoro-N-(2-isopropylbenzyl)-1-methyl-1H-pyrazole-4-carbothioamide] was tested, and the IC50 [1] was 31.6 nM, the Classification [1] was “A” and the IC50 [2] was 631 nM.

In the case of `CCc1ccccc1CN(C(=O)c1c(C(F)F)nn(C)c1F)C1CC1` [Compound A21, N-cyclopropyl-3-(difluoromethyl)-N-(2-ethylbenzyl)-5-fluoro-1-methyl-1H-pyrazole-4-carboxamide], the IC50 [1] is reported as 2.51 nM, the Classification [1] is reported as “A” and the IC50 [2] is reported as 10 nM and 31.6 nM.

In the case of `Cn1nc(C(F)F)c(C(=O)N(Cc2ccccc2[Si](C)(C)C)C2CC2)c1F` [Compound A22, N-cyclopropyl-3-(difluoromethyl)-5-fluoro-1-methyl-N-[2-(trimethylsilyl)benzyl]-1H-pyrazole-4-carboxamide], the IC50 [1] is reported as 3.16 nM, the Classification [1] is reported as “A” and the IC50 [2] is reported as 3.98 nM.

For `Cn1cc(C(=O)Nc2ccccc2-c2cc(F)c(F)c(F)c2)c(C(F)F)n1` [Fluxapyroxad], the “resistance factor (RF), ratio” value [3, 4] was 197.2, the “resistance factor (RF), ratio” value [3, 5] was 135.6 and the “resistance factor (RF), ratio” value [3, 6] was 131.5. The “resistance factor (RF), ratio” value [3, 7] was 89.1, the “resistance factor (RF), ratio” value [3, 8] was 103.0 and the “resistance factor (RF), ratio” value [3, 9] was 127.9. For the same compound, the “resistance factor (RF), ratio” value [3, 10] was 134.2, the “resistance factor (RF), ratio” value [3, 11] was 104.7 and the “PI50 P225H3884” value [1] was 6.2. For the same compound, the Classification [1] was “C (Classification C pI50 decrease superior to 0.6 compared to WT)” and the “PI50 Bo47 (Wild type)” value [2] was 8.0.

With `CC(C)C1C2CCC1c1c(NC(=O)c3cn(C)nc3C(F)F)cccc12` (stereo not shown) [Isopyrazam] the “resistance factor (RF), ratio” value [3, 4] was 48.4, the “resistance factor (RF), ratio” value [3, 5] was 42.9 and the “resistance factor (RF), ratio” value [3, 6] was 37.9. For the same compound, the “resistance factor (RF), ratio” value [3, 7] was 32.8, the “resistance factor (RF), ratio” value [3, 8] was 19.7 and the “resistance factor (RF), ratio” value [3, 9] was 25.1. The “resistance factor (RF), ratio” value [3, 10] was 30.7, the “sensitivity class of strains by RF” value ([3]; strains harboring P225H and F substitutions) was “moderately resistant (moderately resistant when RF was comprised between 10 and 50)” and the “PI50 P225H3884” value [1] was 7.2. For the same compound, the Classification [1] was “C (Classification C pI50 decrease superior to 0.6 compared to WT)” and the “PI50 Bo47 (Wild type)” value [2] was 8 and 8.2.

In the case of `CC(C)CC(C)c1sccc1NC(=O)c1cn(C)nc1C(F)(F)F` (stereo not shown) [Penthiopyrad, reference compound], the IC50 [1] is reported as 501 nM, the Classification [1] is reported as “C (Classification C pI50 decrease superior to 0.6 compared to WT)” and the IC50 [2] is reported as 15.8 nM.
